Test results reported in paper PMC8151276, “An Integrated Approach toward NanoBRET Tracers for Analysis of GPCR Ligand Engagement” (Molecules, 2021).

Assays:
Type in all cases: binding
[1] = target: T1, TACR2 (Homo sapiens, UniProt P21452); assay: NanoBRET screen HiBiT-TACR2 in HEK293
T1 construct: purchased Promega (in-house HiBiT-GPCR construct library, NanoBRET)
T1 sequence (P21452 1-398): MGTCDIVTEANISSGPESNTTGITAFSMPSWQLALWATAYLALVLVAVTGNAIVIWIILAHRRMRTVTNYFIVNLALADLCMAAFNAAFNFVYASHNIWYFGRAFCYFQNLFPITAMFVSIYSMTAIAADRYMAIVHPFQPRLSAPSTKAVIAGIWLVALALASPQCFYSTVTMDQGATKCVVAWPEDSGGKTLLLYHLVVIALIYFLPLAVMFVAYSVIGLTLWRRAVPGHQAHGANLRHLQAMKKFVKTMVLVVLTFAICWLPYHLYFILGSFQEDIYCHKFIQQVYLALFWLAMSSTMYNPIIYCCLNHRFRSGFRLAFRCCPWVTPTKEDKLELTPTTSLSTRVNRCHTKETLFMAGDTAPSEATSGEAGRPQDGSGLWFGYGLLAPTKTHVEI
Method: (§1) Each tracer candidate was screened across the entire library of HiBiT-GPCR constructs using NanoBRET as the detection modality. As depicted in Figure 4A, the specificity of interactions was evaluated through decrease in BRET due to competitive displacement of a bound tracer by excess parental compound. Each tracer was analyzed for binding to each HiBiT-GPCR fusion in the absence and in the presence of competing parental compound. Briefly, HEK293 cells were transfected with HiBiT-GPCR constructs diluted into promoterless DNA to reduce expression and maximize translocation to the cell surface. Each tracer candidate was then screened at concentrations of 1 μM and 0.1 μM across cells expressing these fusions. Cells were treated for 1.5 h with tracer either alone or in the presence of 20 μM competing parental compound (i.e., control). BRET was measured upon addition of purified LgBiT and subsequent complementation with HiBiT genetically fused to a GPCR. The specificity of interactions was assessed through a decrease in BRET signal due to competitive displacement of the bound tracer. To further gauge the robustness of these interactions, the fold response over the control (i.e., BRETtracer/BRETcontrol) was calculated. We chose a 1.5-fold response, which translates to ≥7-fold signal over noise as the minimal threshold required to score an interaction as positive. […]. Below we highlight the screening results obtained for our exemplary fluorescent tracers based on Clozapine, Amitriptyline and AZD1283.
(§2) HiBiT-GPCR DNA constructs were diluted in 10 mM Tris pH 8 to a final concentration of 0.01 μg/μL, arrayed in 96-well plates and stored at −20 °C. For transfection, HEK293 cells were suspended in Opti-MEM (without phenol red) supplemented with 2% fetal bovine serum (Seradigm) and 100 units/mL penicillin–streptomycin (Gibco) at a final concentration of 220,000 cells/mL and dispensed into white 96-well plates at 90 μL/well. Subsequent transfections and screens were carried using an Agilent Bravo Automated Liquid Handling Platform. First, the 96-well HiBiT DNA arrays were diluted 25-fold in Opti-MEM (without serum or phenol red) to a final concentration of 0.0004 μg/μL and 20 μL of the diluted DNAs were transferred into new 96-well plates. Next, promoterless carrier DNA (1 μg/μL) was diluted 25-fold (0.04 μg/μL) and then dispensed into the diluted arrays at 20 μL/well. Following brief mixing, Viafect transfection reagent (Promega) diluted 16-fold into Opti-MEM was dispensed into the plates at 40 μL/well. After mixing by pipetting, plates were incubated for 10 min on the pipetting station deck. The DNA-transfection reagent complexes were then added to plates containing cells. To facilitate the screen, 10 μL of DNA-transfection reagent complexes were added in duplicates to the top 4 and bottom 4 rows, resulting in two identical 48-well arrays per plate. Plates with transfected cells were incubated for 18–20 h at 37 °C/5% CO2. A screen of each tracer across the entire library using two different concentrations requires duplicate plates of transfected cells. Depending on the number of tracers being screened, transfections can be scaled up using the same ratios. The next day, for each tracer, four 20× screening solutions in tracer dilution buffer (Promega) were prepared: two duplicates at final concentration of 20 μM and two duplicates at a final concentration of 2 μM. A competing unmodified compound was added to one of each duplicate at a final concentration of 400 μM. The four resulting solutions were diluted 4-fold in Opti-MEM without serum or phenol red to generate 5× solutions (5 µM and 0.5 µM tracer +/− 100 μM competing compound). To screen the library, a BioTek MultiFlo FX liquid dispenser was used to dispense 22.5 µL of tracer solution to the top 4 rows and 22.5 µL tracer + competing compound solution to the 4 bottom rows. Plates were briefly mixed on an orbital shaker and incubated for 1.5 h at room temperature. […]

[2] = target: T2, ADRB1 (Homo sapiens, UniProt P08588); assay: NanoBRET screen HiBiT-ADRB1 in HEK293
T2 construct: purchased Promega (in-house HiBiT-GPCR construct library, NanoBRET)
T2 sequence (P08588 whole entry): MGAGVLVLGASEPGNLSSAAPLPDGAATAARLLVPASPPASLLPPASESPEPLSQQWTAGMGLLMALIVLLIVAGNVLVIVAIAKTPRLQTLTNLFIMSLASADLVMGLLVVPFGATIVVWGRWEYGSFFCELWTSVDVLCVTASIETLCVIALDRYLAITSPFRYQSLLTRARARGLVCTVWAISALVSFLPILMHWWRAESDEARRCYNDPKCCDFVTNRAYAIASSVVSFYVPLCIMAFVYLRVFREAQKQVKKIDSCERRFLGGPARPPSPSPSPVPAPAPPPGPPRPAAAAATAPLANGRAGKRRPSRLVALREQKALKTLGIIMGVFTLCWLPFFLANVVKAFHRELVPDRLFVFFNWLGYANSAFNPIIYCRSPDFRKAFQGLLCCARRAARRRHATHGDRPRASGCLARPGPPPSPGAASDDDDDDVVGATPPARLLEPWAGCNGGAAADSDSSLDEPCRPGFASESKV

[3] = target: T3, TBXA2R (Homo sapiens, UniProt P21731); assay: NanoBRET screen HiBiT-TBXA2R in HEK293
T3 construct: purchased Promega (in-house HiBiT-GPCR construct library, NanoBRET)
T3 sequence (P21731 1-343): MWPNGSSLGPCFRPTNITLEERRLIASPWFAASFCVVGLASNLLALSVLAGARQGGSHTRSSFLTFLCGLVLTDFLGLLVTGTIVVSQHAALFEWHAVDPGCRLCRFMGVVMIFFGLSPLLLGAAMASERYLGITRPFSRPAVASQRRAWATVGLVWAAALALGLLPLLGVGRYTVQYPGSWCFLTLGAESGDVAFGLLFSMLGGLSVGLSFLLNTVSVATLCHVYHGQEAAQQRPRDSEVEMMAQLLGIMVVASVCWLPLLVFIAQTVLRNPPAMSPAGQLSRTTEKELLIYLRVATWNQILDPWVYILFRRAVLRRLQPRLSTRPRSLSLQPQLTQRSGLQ
Method: as §1, §2

[4] = tracer at 1μM, listed as amitriptyline-b-2-NB590

| SMILES | NanoBRET Fold Response ([1]; TACR2, tracer 0.1μM) | NanoBRET Fold Response ([1]; TACR2, tracer 1μM) | NanoBRET Fold Response ([2]; ADRB1, tracer 0.1μM) | NanoBRET Fold Response ([2]; ADRB1, tracer 1μM) | NanoBRET Fold Response ([3]; TBXA2R, tracer 0.1μM) | NanoBRET Fold Response ([3]; TBXA2R, tracer 1μM) | further results |
| --- | --- | --- | --- | --- | --- | --- | --- |
| Cc1nc2n(c(=O)c1CCN1CCC(c3noc4cc(F)ccc34)CC1)CCCC2OC(=O)NCCOCCOCCOCCOCCNC(=O)CCc1ccc2n1[B-](F)(F)[N+]1=C(c3ccc[nH]3)C=CC1=C2 (stereo not drawn) [Risperidone-2-NB590] | 1.18 | 1.09 | 0.98 | 1.05 | 0.93 | 1.01 |  |
| CCOC(=O)c1cc(C#N)c(N2CCC(C(=O)NS(=O)(=O)Cc3ccccc3/C=C/C(=O)NCCNC(=O)CCc3ccc4n3[B-](F)(F)[N+]3=C(c5ccc[nH]5)C=CC3=C4)CC2)nc1C [AZD1283-1-NB590] |  |  |  |  |  |  | NanoBRET Fold Response ([1]; TACR2, 0.1μM): 1.09; NanoBRET Fold Response ([1]; TACR2, 1μM): 1.04; NanoBRET Fold Response ([2]; ADRB1, 0.1μM): 1.05; NanoBRET Fold Response ([2]; ADRB1, 1μM): 1.09; NanoBRET Fold Response ([3]; TBXA2R, 0.1μM): 1.04; NanoBRET Fold Response ([3]; TBXA2R, 1μM): 1.19 |
| Cc1cc2c(s1)Nc1ccccc1N=C2N1CCN(CCCNC(=O)CCOCCOCCOCCOCCNC(=O)CCc2ccc3n2[B-](F)(F)[N+]2=C(c4ccc[nH]4)C=CC2=C3)CC1 [Olanzapine-a-2-NB590] | 1.01 | 0.88 | 1.01 | 0.97 | 0.95 | 1.02 |  |
| COc1ccccc1N1CCN(CCCCN2C(=O)c3ccc(CNC(=O)CCOCCNC(=O)c4ccc(CNC(=O)CCc5ccc6n5[B-](F)(F)[N+]5=C(c7ccc[nH]7)C=CC5=C6)cc4)cc3C2=O)CC1 [NAN-190-3-NB590] | 1.12 | 1.09 |  |  | 1.08 | 1.15 |  |
| CC(C)N(CC[C@H](c1ccccc1)c1cc(CCNC(=O)CCOCCOCCOCCOCCNC(=O)CCc2ccc3n2[B-](F)(F)[N+]2=C(c4ccc[nH]4)C=CC2=C3)ccc1O)C(C)C [Tolterodine-2-NB590] | 0.87 | 1.41 | 1.09 | 0.99 | 0.79 | 1.01 |  |
| CN(C)CCC=C1c2ccccc2CCc2ccc(C(=O)NCCNC(=O)CCOCCOCCOCCOCCNC(=O)CCc3ccc4n3[B-](F)(F)[N+]3=C(c5ccc[nH]5)C=CC3=C4)cc21 [Amitriptyline-b-2-NB590] |  |  |  |  |  |  | NanoBRET Fold Response ([1]; tracer at 0.1μM, listed as amitriptyline-b-2-NB590): 0.86; NanoBRET Fold Response [1, 4]: 1.17; NanoBRET Fold Response [2, 4]: 0.96; NanoBRET Fold Response ([3]; tracer at 0.1μM): 0.90; NanoBRET Fold Response ([3]; tracer at 1μM): 1.01 |
| O=C(CCOCCOCCOCCOCCNC(=O)CCc1ccc2n1[B-](F)(F)[N+]1=C(c3ccc[nH]3)C=CC1=C2)NCCCN1CCN(C2=Nc3ccccc3Oc3ccc(Cl)cc32)CC1 [Loxapine-a-2-NB590] | 0.86 | 0.64 | 0.97 | 0.97 | 0.99 | 1.03 |  |
| CN(C)CCC=C1c2ccccc2CCc2ccc(C(=O)NCCNC(=O)CCOCCOCCOCCOCCNC(=O)CCc3ccc4n3[B-](F)(F)[N+]3=C(c5ccc[nH]5)C=CC3=C4)cc21 [Amitriptyline-a-2-NB590] |  |  |  |  |  |  | NanoBRET Fold Response ([1]; tracer at 0.1μM): 1.10; NanoBRET Fold Response ([1]; tracer at 1μM): 1.13; NanoBRET Fold Response ([2]; tracer at 0.1μM): 1.05; NanoBRET Fold Response ([2]; tracer at 1μM): 1.18 |
| O=C(CCc1ccc2n1[B-](F)(F)[N+]1=C(c3ccc[nH]3)C=CC1=C2)NCCOCCOCCNC(=O)OCCOCCN1CCN(C2=Nc3ccccc3Sc3ccccc32)CC1 [Quetiapine-a-2-NB590] | 1.22 | 0.72 | 1.00 | 0.91 | 1.01 | 1.05 |  |
| COc1ccccc1N1CCN(CCCCN2C(=O)c3ccc(CNC(=O)CCOCCOCCOCCOCCNC(=O)CCc4ccc5n4[B-](F)(F)[N+]4=C(c6ccc[nH]6)C=CC4=C5)cc3C2=O)CC1 [NAN-190-2-NB590] | 0.88 | 1.04 |  |  | 1.07 | 1.06 |  |
| CN1CCN(C2=Nc3cc(Cl)ccc3N(CC(=O)NCCOCCOCCOCCOCCNC(=O)CCc3ccc4n3[B-](F)(F)[N+]3=C(c5ccc[nH]5)C=CC3=C4)c3ccccc32)CC1 [Clozapine-c-2-NB590] |  |  |  |  |  |  | NanoBRET Fold Response ([1]; TACR2, 0.1μM tracer): 0.93; NanoBRET Fold Response ([1]; TACR2, 1μM tracer): 0.88; NanoBRET Fold Response ([2]; ADRB1, 0.1μM tracer): 1.02; NanoBRET Fold Response ([2]; ADRB1, 1μM tracer): 0.94; NanoBRET Fold Response ([3]; TBXA2R, 0.1μM tracer): 1.03; NanoBRET Fold Response ([3]; TBXA2R, 1μM tracer): 0.95 |
| N#CN/C(=N\CCNC(=O)c1ccc(N)cc1)NCCCOc1cccc(CN2CCCCC2)c1 [Aminopotentidine (unmodified)] |  |  |  |  |  |  | NanoBRET Fold Response ([2]; ADRB1, other tracers/Aminopotentidine (unmodified), 0.1μM): 1.01; NanoBRET Fold Response ([2]; ADRB1, other tracers/Aminopotentidine (unmodified), 1μM): 1.07 |
| COc1ccc2[nH]c(-c3ccc(CNC(=O)CCOCCOCCOCCOCCNC(=O)CCc4ccc5n4[B-](F)(F)[N+]4=C(c6ccc[nH]6)C=CC4=C5)cc3)c(CCNC(C)=O)c2n1 [AzomelatoninICO9-2-NB590] |  |  |  |  |  |  | NanoBRET Fold Response ([1]; 0.1μM tracer): 0.37; NanoBRET Fold Response ([1]; 1μM tracer): 0.84; NanoBRET Fold Response ([2]; 0.1μM tracer): 0.84; NanoBRET Fold Response ([2]; 1μM tracer): 0.96; NanoBRET Fold Response ([3]; 0.1μM tracer): 1.27; NanoBRET Fold Response ([3]; 1μM tracer): 0.99 |
| O=C(CCc1ccc2n1[B-](F)(F)[N+]1=C(c3ccc[nH]3)C=CC1=C2)NCc1ccc(C(=O)NCCOCCOCCNCC(O)COc2cccc3ccccc23)cc1 (stereo not drawn) [Propranolol-3-NB590] |  |  |  |  |  |  | NanoBRET Fold Response ([1]; TACR2, 0.1μM): 1.01; NanoBRET Fold Response ([1]; TACR2, 1μM): 1.01; NanoBRET Fold Response ([3]; TBXA2R, 0.1μM): 0.97; NanoBRET Fold Response ([3]; TBXA2R, 1μM): 1.09 |
| CN(CCC=C1c2ccccc2CCc2ccccc21)C(=O)CCOCCOCCOCCOCCNC(=O)CCc1ccc2n1[B-](F)(F)[N+]1=C(c3ccc[nH]3)C=CC1=C2 [Amitriptyline-e-2-NB590] |  |  |  |  |  |  | NanoBRET Fold Response ([2]; tracer at 1μM): 0.95 |
